In US20250002866A1, “CELL CULTURE PLATFORMS, METHODS AND USES THEREOF” (ACADEMIA SINICA, priority 2021, published 2025):

Experiments:
[1] = tested on: CTC spheroid derived from blood samples of patient A; assay: Ex vivo drug assay on CTC spheroids of patient A; assay type: cell-based, human; details: for diameter and morphology of CTC spheroid: after treatment for 3 days, versus untreated mock group
Procedure: FIGS. 3A-F show the in vitro drug test results of CTC-derived spheroids and clinical-pathological results of the clinical patient. (A) The drug cytotoxicity assay results on the patient-derived CTC-originated spheroid of patient A. Six chemotherapeutic drugs were tested in this assay include oxaliplatin, docetaxel, doxorubicin, irinotecan, mitomycin-C, and 5-FU. (B and D) The image of the morphology of CTC-derived spheroids after drug panel treatment at day 3. Scale bar=20 μm. (C and E) The normalized viability of CTC-derived spheroids with indicated drug panel after 3 days of treatment. (F) The contrast-enhanced CT images before and after cisplatin/gemcitabine treatment of patient B.
In order to validate the ex vivo drug assay results, we tested single or combination therapeutic agents in CTC cultures derived from blood samples of patients. […] A designed ex vivo drug assay with both used and potential candidate drug panel including oxaliplatin, docetaxel, 5-FU, doxorubicin, mitomycin-c, and irinotecan was accomplished with time-dependent and dose-dependent manner (FIG. 3A). With regard to the cell morphology, the diameter of CTC spheroid derived from blood samples of patient A was about 30˜40 μm with an intact spheroid morphology in untreated mock group. […] The results highly match with the clinical treatment outcomes in the treatment resistance on the clinical used drugs. Therefore, doxorubicin was the related promising candidate drug among the un-used drugs (mitomycin-c and irinotecan) for next line treatment (FIG. 3B). Additional ex vivo drug test was also performed on patient B with urothelium cancer.
Spheroid formation on the culture platform of the invention. Collect the cell sample that would be used for cultivation on the culture platform of the invention in suspension medium. Add cell suspension medium into each well. The cells could be cultured under 37° C. incubator with humidified 5% CO2 atmosphere. Exchange half of the culture medium once or twice per week. The cultured spheroids (tumoroids) enables sustain in the culture platform of the invention for more than two weeks depends on the cell density and demand of the spheroid size.

cancer of patient A = assay: Clinical treatment outcome of patient A; assay type: in vivo, human; details: previous clinical treatment

Row | Compound | diameter and morphology of CTC spheroid [1] | clinical treatment outcome (cancer of patient A) | spheroid viability ([1]; CTC spheroids of patient A under drug treatment)
1 | O=c1[nH]cc(F)c(=O)[nH]1 [5-FU, fluorouracil] | smaller than the mock group and became leakage in appearance | progression disease | 
2 | CC(=O)O[C@@]12CO[C@@H]1C[C@H](O)[C@@]1(C)C(=O)[C@H](O)C3=C(C)[C@@H](OC(=O)[C@H](O)[C@@H](NC(=O)OC(C)(C)C)c4ccccc4)C[C@@](O)([C@@H](OC(=O)c4ccccc4)[C@H]21)C3(C)C [docetaxel] |  | progression disease | 
3 | COc1cccc2c1C(=O)c1c(O)c3c(c(O)c1C2=O)C[C@@](O)(C(=O)CO)C[C@@H]3O[C@H]1C[C@H](N)[C@H](O)[C@H](C)O1 [doxorubicin] | obvious broken morphology |  | lower than 4%
4 | O=C1[O][Pt]2([NH][C@@H]3CCCC[C@H]3[NH]2)[O]C1=O [oxaliplatin] | smaller than the mock group and became leakage in appearance | progression disease | 
